Experimental data: US9113629B2, “4-amino-6-(4-substituted-phenyl)-picolinates and 6-amino-2-(4-substituted-phenyl)-pyrimidine-4-carboxylates and their use as herbicides” (DOW AGROSCIENCES LLC, priority 2013, dated 2015)
Read-outs that look alike come from different tables or passages of the source.

Tests used:
[1] = test system: Key Broadleaf Weed and Crop Species; experiment: Post-emergent Test II herbicidal activity (Table 5); type: in vivo; conditions: post-emergence, 336 h, post-emergent, 14 days after application; for pest or weed control at 70 g/ha: 70 g ai/ha
How it was run: (§1)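 Foliar application at 187 L/ha to greenhouse-grown seedlings (first or second true leaf); subirrigation thereafter. Visual 0–100% injury at 14 d relative to untreated plants.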

[2] = test system: Key Grass and Sedge Weeds as well as Grass Crops; experiment: Post-emergent Test II herbicidal activity (Table 6); type: in vivo; conditions: post-emergence, 336 h; for pest or weed control at 70 g/ha: application rate 70 g ai/ha; for pest or weed control at 140 g/ha: application rate 140 g ai/ha
How it was run: as §1

[3] = ABUTH: velvetleaf (Abutilon theophrasti), read-out: Visual Growth Reduction (%) 14 Days After Application ABUTH
[4] = ABUTH: velvetleaf (Abutilon theophrasti), 140 g ai/ha, read-out: Visual Growth Reduction (%) 14 Days After Application ABUTH
[5] = AMARE: redroot pigweed (Amaranthus retroflexus), read-out: Visual Growth Reduction (%) 14 Days After Application AMARE
[6] = AMARE: redroot pigweed (Amaranthus retroflexus), 140 g ai/ha, read-out: Visual Growth Reduction (%) 14 Days After Application AMARE
[7] = BRSNN: oilseed-rape, canola (Brassica napus), read-out: Visual Growth Reduction (%) 14 Days After Application BRSNN
[8] = BRSNN: oilseed-rape, canola (Brassica napus), 140 g ai/ha, read-out: Visual Growth Reduction (%) 14 Days After Application BRSNN
[9] = CHEAL: lambsquarters (Chenopodium album), read-out: Visual Growth Reduction (%) 14 Days After Application CHEAL
[10] = CHEAL: lambsquarters (Chenopodium album), 140 g ai/ha, read-out: Visual Growth Reduction (%) 14 Days After Application CHEAL
[11] = EPHHL: wild poinsettia (Euphorbia heterophylla), read-out: Visual Growth Reduction (%) 14 Days After Application EPHHL
[12] = EPHHL: wild poinsettia (Euphorbia heterophylla), 140 g ai/ha, read-out: Visual Growth Reduction (%) 14 Days After Application EPHHL
[13] = HELAN: sunflower (Helianthus annuus), read-out: Visual Growth Reduction (%) 14 Days After Application HELAN
[14] = HELAN: sunflower (Helianthus annuus), 140 g ai/ha, read-out: Visual Growth Reduction (%) 14 Days After Application HELAN
[15] = VIOTR: wild pansy (Viola tricolor), read-out: Visual Growth Reduction (%) 14 Days After Application VIOTR
[16] = VIOTR: wild pansy (Viola tricolor), 140 g ai/ha, read-out: Visual Growth Reduction (%) 14 Days After Application VIOTR
[17] = CYPES: yellow nutsedge (Cyperus esculentus), read-out: Visual Growth Reduction (%) 14 Days After Application, CYPES
[18] = DIGSA: crabgrass (Digitaria sanguinalis), read-out: Visual Growth Reduction (%) 14 Days After Application, DIGSA
[19] = ECHCG: barnyardgrass (Echinochloa crus-galli), read-out: Visual Growth Reduction (%) 14 Days After Application, ECHCG
[20] = ORYSA: rice (Oryza sativa), read-out: Visual Growth Reduction (%) 14 Days After Application, ORYSA
[21] = SETFA: giant foxtail (Setaria faberi), read-out: Visual Growth Reduction (%) 14 Days After Application, SETFA
[22] = SORVU: grain sorghum (Sorghum vulgare), read-out: Visual Growth Reduction (%) 14 Days After Application, SORVU
[23] = TRZSS (wheat, Triticum aestivum), read-out: Visual Growth Reduction (%) 14 Days After Application, TRZSS
[24] = ZEAMX: maize, corn (Zea mays), read-out: Visual Growth Reduction (%) 14 Days After Application, ZEAMX

`COC(=O)c1nc(-c2cc(F)c(C(F)F)cc2F)c(F)c(N)c1Cl` [Compound 176] gave a pest or weed control at 70 g/ha [1, 3] of 95 to 100%, a pest or weed control at 140 g/ha [1, 4] of 95 to 100% and a pest or weed control at 70 g/ha [1, 5] of 95 to 100%. For the same compound, the pest or weed control at 140 g/ha [1, 6] was 95 to 100%, the pest or weed control at 70 g/ha [1, 7] was 95 to 100% and the pest or weed control at 140 g/ha [1, 8] was 95 to 100%. For the same compound, the pest or weed control at 70 g/ha [1, 9] was 85 to 94%, the pest or weed control at 140 g/ha [1, 10] was 85 to 94% and the pest or weed control at 70 g/ha [1, 11] was 95 to 100%. It also gave a pest or weed control at 140 g/ha [1, 12] of 95 to 100%, a pest or weed control at 70 g/ha [1, 13] of 95 to 100% and a pest or weed control at 140 g/ha [1, 14] of 95 to 100%. For the same compound, the pest or weed control at 70 g/ha [1, 15] was 30 to 44%, the pest or weed control at 140 g/ha [1, 16] was 45 to 59% and the pest or weed control at 70 g/ha [2, 17] was 85 to 94%. For the same compound, the pest or weed control at 140 g/ha [2, 17] was 95 to 100%, the pest or weed control at 70 g/ha [2, 18] was 45 to 59% and the pest or weed control at 140 g/ha [2, 18] was 60 to 74%. It also gave a pest or weed control at 70 g/ha [2, 19] of 85 to 94%, a pest or weed control at 140 g/ha [2, 19] of 85 to 94% and a pest or weed control at 70 g/ha [2, 20] of 0 to 29%. For the same compound, the pest or weed control at 140 g/ha [2, 20] was 0 to 29%, the pest or weed control at 70 g/ha [2, 21] was 85 to 94% and the pest or weed control at 140 g/ha [2, 21] was 85 to 94%. It also gave a pest or weed control at 70 g/ha [2, 22] of 60 to 74%, a pest or weed control at 140 g/ha [2, 22] of 85 to 94% and a pest or weed control at 70 g/ha [2, 23] of 30 to 44%. It also gave a pest or weed control at 140 g/ha [2, 23] of 45 to 59%, a pest or weed control at 70 g/ha [2, 24] of 0 to 29% and a pest or weed control at 140 g/ha [2, 24] of 85 to 94%. It also gave a melting point of 135.2 to 136.9 °C.
Compound `COC(=O)c1nc(-c2cc(F)c(OC(F)F)cc2F)cc(N)c1Cl` [Compound 177] has a pest or weed control at 70 g/ha [1, 3] of 85 to 94%, a pest or weed control at 140 g/ha [1, 4] of 85 to 94% and a pest or weed control at 70 g/ha [1, 5] of 75 to 84%. For the same compound, the pest or weed control at 140 g/ha [1, 6] was 85 to 94%, the pest or weed control at 70 g/ha [1, 7] was 30 to 44% and the pest or weed control at 140 g/ha [1, 8] was 75 to 84%. The pest or weed control at 70 g/ha [1, 9] was 75 to 84%, the pest or weed control at 140 g/ha [1, 10] was 85 to 94% and the pest or weed control at 70 g/ha [1, 11] was 95 to 100%. It also gave a pest or weed control at 140 g/ha [1, 12] of 95 to 100%, a pest or weed control at 70 g/ha [1, 13] of 30 to 44% and a pest or weed control at 140 g/ha [1, 14] of 0 to 29%. For the same compound, the pest or weed control at 70 g/ha [1, 15] was 0 to 29%, the pest or weed control at 140 g/ha [1, 16] was 0 to 29% and the pest or weed control at 70 g/ha [2, 17] was 45 to 59%. The pest or weed control at 140 g/ha [2, 17] was 45 to 59%, the pest or weed control at 70 g/ha [2, 18] was 0 to 29% and the pest or weed control at 140 g/ha [2, 18] was 0 to 29%. The pest or weed control at 70 g/ha [2, 19] was 0 to 29%, the pest or weed control at 140 g/ha [2, 19] was 60 to 74% and the pest or weed control at 70 g/ha [2, 20] was 0 to 29%. The pest or weed control at 140 g/ha [2, 20] was 0 to 29%, the pest or weed control at 70 g/ha [2, 21] was 30 to 44% and the pest or weed control at 140 g/ha [2, 21] was 45 to 59%. The pest or weed control at 70 g/ha [2, 22] was 0 to 29%, the pest or weed control at 140 g/ha [2, 22] was 45 to 59% and the pest or weed control at 70 g/ha [2, 23] was 30 to 44%. It also gave a pest or weed control at 140 g/ha [2, 23] of 30 to 44%, a pest or weed control at 70 g/ha [2, 24] of 0 to 29% and a pest or weed control at 140 g/ha [2, 24] of 0 to 29%. It also gave a melting point of 107.5 to 110.3 °C.
For `COC(=O)c1nc(-c2cc(F)c(C)cc2F)cc(N)c1Cl` [Compound 179], the pest or weed control at 70 g/ha [1, 3] was 95 to 100%, the pest or weed control at 140 g/ha ([1]; ABUTH: velvetleaf (Abutilon theophrasti), application rate 140 g ai/ha, read-out: Visual Growth Reduction (%) 14 Days After Application, ABUTH) was 95 to 100% and the pest or weed control at 70 g/ha [1, 5] was 95 to 100%. For the same compound, the pest or weed control at 140 g/ha ([1]; AMARE: redroot pigweed (Amaranthus retroflexus), application rate 140 g ai/ha, read-out: Visual Growth Reduction (%) 14 Days After Application, AMARE) was 95 to 100%, the pest or weed control at 70 g/ha [1, 7] was 30 to 44% and the pest or weed control at 140 g/ha ([1]; BRSNN: oilseed-rape, canola (Brassica napus), application rate 140 g ai/ha, read-out: Visual Growth Reduction (%) 14 Days After Application, BRSNN) was 45 to 59%. It also gave a pest or weed control at 70 g/ha [1, 9] of 95 to 100%, a pest or weed control at 140 g/ha ([1]; CHEAL: lambsquarters (Chenopodium album), application rate 140 g ai/ha, read-out: Visual Growth Reduction (%) 14 Days After Application, CHEAL) of 95 to 100% and a pest or weed control at 70 g/ha [1, 11] of 95 to 100%. For the same compound, the pest or weed control at 140 g/ha ([1]; EPHHL: wild poinsettia (Euphorbia heterophylla), application rate 140 g ai/ha, read-out: Visual Growth Reduction (%) 14 Days After Application, EPHHL) was 95 to 100%, the pest or weed control at 70 g/ha [1, 13] was 85 to 94% and the pest or weed control at 140 g/ha ([1]; HELAN: sunflower (Helianthus annuus), application rate 140 g ai/ha, read-out: Visual Growth Reduction (%) 14 Days After Application, HELAN) was 85 to 94%. The pest or weed control at 70 g/ha [1, 15] was 0 to 29%, the pest or weed control at 140 g/ha ([1]; VIOTR: wild pansy (Viola tricolor), application rate 140 g ai/ha, read-out: Visual Growth Reduction (%) 14 Days After Application, VIOTR) was 0 to 29% and the pest or weed control at 70 g/ha [2, 17] was 0 to 29%. The pest or weed control at 140 g/ha [2, 17] was 0 to 29%, the pest or weed control at 70 g/ha [2, 18] was 0 to 29% and the pest or weed control at 140 g/ha [2, 18] was 0 to 29%. For the same compound, the pest or weed control at 70 g/ha [2, 19] was 0 to 29%, the pest or weed control at 140 g/ha [2, 19] was 30 to 44% and the pest or weed control at 70 g/ha [2, 20] was 0 to 29%. The pest or weed control at 140 g/ha [2, 20] was 0 to 29%, the pest or weed control at 70 g/ha [2, 21] was 0 to 29% and the pest or weed control at 140 g/ha [2, 21] was 0 to 29%. It also gave a pest or weed control at 70 g/ha [2, 22] of 0 to 29%, a pest or weed control at 140 g/ha [2, 22] of 45 to 59% and a pest or weed control at 70 g/ha [2, 23] of 0 to 29%. For the same compound, the pest or weed control at 140 g/ha [2, 23] was 0 to 29%, the pest or weed control at 70 g/ha [2, 24] was 0 to 29% and the pest or weed control at 140 g/ha [2, 24] was 0 to 29%. For the same compound, the melting point was 137.2 to 138.8 °C.
